Source: ChEMBL document CHEMBL3045913, “Synthesis and cytotoxicity of novel chrysin derivatives” (Med Chem Res, 2011)

Legend:
Type in all cases: functional, cell-based
HCT-116 = assay: Cytotoxicity against Homo sapiens (human) HCT116 cells by MTT assay
K562 = assay: Cytotoxicity against Homo sapiens (human) K562 cells by MTT assay
DU-145 = assay: Cytotoxicity against Homo sapiens (human) DU145 cells by MTT assay
HeLa = assay: Cytotoxicity against Homo sapiens (human) HeLa cells by MTT assay
SGC-7901 = assay: Cytotoxicity against Homo sapiens (human) SGC7901 cells by MTT assay

| SMILES | IC50 (HCT-116) [µM] | IC50 (K562) [µM] | IC50 (DU-145) [µM] | IC50 (HeLa) [µM] | IC50 (SGC-7901) [µM] |
| --- | --- | --- | --- | --- | --- |
| O=c1cc(-c2ccccc2)oc2cc(OCCN3CCOCC3)cc(O)c12 | > 100 | > 100 | > 100 | > 100 | 43 |
| CCN(CC)CCOc1cc(O)c2c(=O)cc(-c3ccccc3)oc2c1 | 9.8 | 12.9 | 3.17 | 18.8 | 13.9 |
| O=c1cc(-c2ccccc2)oc2cc(OCCN3CCN(c4ccccc4)CC3)cc(O)c12 | > 100 | > 100 | > 100 | > 100 | > 100 |
| O=c1cc(-c2ccccc2)oc2cc(OCCNc3ccccc3)cc(O)c12 | 35.5 | 31.2 | 68.2 | > 100 | 69.8 |
| CCCNCCOc1cc(O)c2c(=O)cc(-c3ccccc3)oc2c1 | 1.5 | 12.9 | 1.4 | 56.6 | 11.1 |
| O=c1cc(-c2ccccc2)oc2cc(OCCN3CCCCC3)cc(O)c12 | > 100 | 16.9 | 3.17 | 1.7 | 3.1 |
| Cc1nccn1CCOc1cc(O)c2c(=O)cc(-c3ccccc3)oc2c1 | 3.2 | 10.8 | 8.2 | 9.7 | 7.83 |
| O=c1cc(-c2ccccc2)oc2cc(OCCN(CCO)CCO)cc(O)c12 | 22.2 | 105 | > 100 | 86.5 | 59.2 |
| O=c1cc(-c2ccccc2)oc2cc(OCCNC3CCCCC3)cc(O)c12 | 2.95 | 1.76 | 4.98 | 6.97 | 6.18 |
| O=c1cc(-c2ccccc2)oc2cc(OCCN3CCNCC3)cc(O)c12 | 32.3 | > 100 | 32.5 | > 100 | > 100 |
| CCCN(CCC)CCOc1cc(O)c2c(=O)cc(-c3ccccc3)oc2c1 | 38 | > 100 | 8.4 | 1.56 | 23.6 |
| CN1CCN(CCOc2cc(O)c3c(=O)cc(-c4ccccc4)oc3c2)CC1 | 18.7 | 23.9 | 28.7 | 47.4 | 55.7 |
| O=c1cc(-c2ccccc2)oc2cc(O)cc(O)c12 [CHRYSIN] | > 100 | > 100 | 9.81 | 43 | > 100 |
| CN(C)CCOc1cc(O)c2c(=O)cc(-c3ccccc3)oc2c1 | 6.2 | 17.9 | 17.7 | 17.7 | 11 |
| O=c1[nH]cc(F)c(=O)[nH]1 [FLUOROURACIL] |  |  | 2.95 |  | 2.19 |
| CC(C)NCCOc1cc(O)c2c(=O)cc(-c3ccccc3)oc2c1 | 8.1 | > 100 | > 100 | > 100 | > 100 |
| O=c1cc(-c2ccccc2)oc2cc(OCCn3ccnc3)cc(O)c12 | 4.2 | 27.2 | 7.3 | 10.8 | 5.55 |
| CCCCN(CCCC)CCOc1cc(O)c2c(=O)cc(-c3ccccc3)oc2c1 | 9.7 | 43.4 | 44.2 | 13.3 | 53.3 |
| CCCCNCCOc1cc(O)c2c(=O)cc(-c3ccccc3)oc2c1 | 2.7 | 14.9 | 1.85 | 40.9 | 1.88 |
| O=c1cc(-c2ccccc2)oc2cc(OCCNCCO)cc(O)c12 | 2.3 | 8.31 | 5.5 | 4.46 | 5.05 |
| CC(C)(C)NCCOc1cc(O)c2c(=O)cc(-c3ccccc3)oc2c1 | 1.87 | > 100 | 2.75 | 4.92 | 3.15 |
| CNCCOc1cc(O)c2c(=O)cc(-c3ccccc3)oc2c1 | 2.5 | 7.8 | 2.95 | 3.72 | 4.8 |
| CC(C)N(CCOc1cc(O)c2c(=O)cc(-c3ccccc3)oc2c1)C(C)C | 4.6 | 27.8 | 18.1 | 24.2 | 7.98 |
